Earlier results in PubChem BioAssay AID1259409 (Chemical Carcinogenesis Research Information System (CCRIS), 2018).

Tested on: rodent chemically induced tumor inhibition, incidence and multiplicity
Experiment: CCRIS tumor inhibitor studies

## CC1=C(/C=C/C(C)=C/C=C/C(C)=C/C(=O)Nc2ccc(O)cc2)C(C)(C)CCC1
Carcinogen: 7,12-DIMETHYLBENZ[A]ANTHRACENE, 57-97-6, Dose [Inhibitor]: 1.5 MMOL/KG CHOW DIET IN 25 ML OF THE VEHICLE (ETHANOL/TRICAPRYLIN 1:4 (VOL/VOL) PLUS 6% (WT/VOL) ALPHA-TOCOPHEROL) BEGI, Route [Inhibitor]: ORAL, Species: RAT, Strain/Sex: SPRAGUE-DAWLEY/FEMALE, Target Tissue: Type of Lesion: MAMMARY GLAND: TUMOR, Dose [Carcinogen]: 75 MG/KG BW IN 1.0 ML SESAME OIL ONCE, Promoter: NONE USED
  tumour outcome (control, treated, inhibition, significance): 70%, 30%, 57%, not significant
Carcinogen: 7,12-DIMETHYLBENZ[A]ANTHRACENE, 57-97-6, Dose [Inhibitor]: 2 MMOL/KG DIET DAILY FROM 10 D THROUGH 12 WK AFTER CARCINOGEN DOSE FOLLOWED BY 16 WK OBSERVATION PERIOD (STUDY DURATION:, Route [Inhibitor]: ORAL, Species: RAT, Strain/Sex: SPRAGUE-DAWLEY/FEMALE, Target Tissue: Type of Lesion: MAMMARY GLAND: TUMOR, Dose [Carcinogen]: 10 MG/RAT ONCE, Promoter: NONE USED
  tumour outcome (control, treated, inhibition, significance): 8/15 (53%), 7/15 (47%), 11%, not significant
Carcinogen: 7,12-DIMETHYLBENZ[A]ANTHRACENE, 57-97-6, Dose [Inhibitor]: 2 MMOL/KG DIET DAILY FROM 29 D PRIOR THROUGH 12 WK AFTER CARCINOGEN DOSE FOLLOWED BY 16 WK OBSERVATION PERIOD (STUDY DUR, Route [Inhibitor]: ORAL, Species: RAT, Strain/Sex: SPRAGUE-DAWLEY/FEMALE, Target Tissue: Type of Lesion: MAMMARY GLAND: TUMOR, Dose [Carcinogen]: 10 MG/RAT ONCE, Promoter: NONE USED
  tumour outcome (control, treated, inhibition, significance): 8/15 (53%), 9/15 (60%), -13%, not significant
Carcinogen: DIETHYLNITROSAMINE [55-18-5], Dose [Inhibitor]: 280 NM/100 G BW WK FOR 3 WK BETWEEN 4TH AND 25TH WK AFTER CARCINOGEN (STUDY DURATION: 50 WK), Route [Inhibitor]: IP INJECTION, Species: RAT, Strain/Sex: F344/MALE, Target Tissue: Type of Lesion: LIVER: HEPATOCELLULAR CARCINOMA, Dose [Carcinogen]: 150 MG/KG ONCE, Promoter: 2-ACETYLAMINOFLUORENE [53-96-3]
  tumour outcome (control, treated, inhibition, significance): 14/18 (78%), 6/20 (30%), 62%, p= 0.0044
Carcinogen: DIETHYLNITROSAMINE, 55-18-5, Dose [Inhibitor]: 0, 98 MG/KG DIET FOR DURATION OF STUDY BEGINNING 1 WK PRIOR TO CARCINOGEN TREATMENT (STUDY DURATION: 25 WK), Route [Inhibitor]: ORAL, Species: HAMSTER, Strain/Sex: SYRIAN/MALE, Target Tissue: Type of Lesion: LUNG: CARCINOMA, Dose [Carcinogen]: 17.8 MG/KG BW 2/WK FOR 20 WK, Promoter: NONE USED
  tumour outcome (control, treated, inhibition, significance): 50%, 45%, 10%, not significant
Carcinogen: DIETHYLNITROSAMINE, 55-18-5, Dose [Inhibitor]: 0, 98 MG/KG DIET FOR DURATION OF STUDY BEGINNING 1 WK PRIOR TO CARCINOGEN TREATMENT (STUDY DURATION: 25 WK), Route [Inhibitor]: ORAL, Species: HAMSTER, Strain/Sex: SYRIAN/MALE, Target Tissue: Type of Lesion: TRACHEA: PAPILLOMA, Dose [Carcinogen]: 17.8 MG/KG BW 2/WK FOR 20 WK, Promoter: NONE USED
  tumour outcome (control, treated, inhibition, significance): 95%, 95%, 0%, not significant
Carcinogen: DIETHYLNITROSAMINE, 55-18-5, Dose [Inhibitor]: 0, 196 MG/KG DIET FOR DURATION OF STUDY BEGINNING 1 WK PRIOR TO CARCINOGEN TREATMENT (STUDY DURATION: 25 WK), Route [Inhibitor]: ORAL, Species: HAMSTER, Strain/Sex: SYRIAN/MALE, Target Tissue: Type of Lesion: LUNG: CARCINOMA, Dose [Carcinogen]: 17.8 MG/KG BW 2/WK FOR 20 WK, Promoter: NONE USED
  tumour outcome (control, treated, inhibition, significance): 60%, 50%, 17%, not significant
Carcinogen: DIETHYLNITROSAMINE, 55-18-5, Dose [Inhibitor]: 0, 196 MG/KG DIET FOR DURATION OF STUDY BEGINNING 1 WK PRIOR TO CARCINOGEN TREATMENT (STUDY DURATION: 25 WK), Route [Inhibitor]: ORAL, Species: HAMSTER, Strain/Sex: SYRIAN/MALE, Target Tissue: Type of Lesion: TRACHEA: PAPILLOMA, Dose [Carcinogen]: 17.8 MG/KG BW 2/WK FOR 20 WK, Promoter: NONE USED
  tumour outcome (control, treated, inhibition, significance): 100%, 100%, 0%, not significant
Carcinogen: DIMETHYLBENZ[A]ANTHRACENE, 57-97-6, Dose [Inhibitor]: 0, 782 MG/KG DIET IN VEHICLE 2 MO PRIOR TO CARCINOGEN DOSE AND CONTINUED UNTIL CARCINOGEN ADMINISTRATION (STUDY DURATION, Route [Inhibitor]: ORAL, Species: RAT, Strain/Sex: CD-1/FEMALE, Target Tissue: Type of Lesion: MAMMARY GLAND: ADENOCARCINOMA, Dose [Carcinogen]: 20 MG IN 1 ML SESAME OIL ONCE, Promoter: NONE USED
  tumour outcome (control, treated, inhibition, significance): 63%, 71%, -13%, not calculated
Carcinogen: DIMETHYLBENZ[A]ANTHRACENE, 57-97-6, Dose [Inhibitor]: 0, 782 MG/KG DIET IN VEHICLE 2 MO PRIOR TO CARCINOGEN DOSE AND CONTINUED UNTIL CARCINOGEN ADMINISTRATION (STUDY DURATION, Route [Inhibitor]: ORAL, Species: RAT, Strain/Sex: CD-1/FEMALE, Target Tissue: Type of Lesion: MAMMARY GLAND: ADENOMA, Dose [Carcinogen]: 20 MG IN 1 ML SESAME OIL ONCE, Promoter: NONE USED
  tumour outcome (control, treated, inhibition, significance): 17%, 43%), -153%, not calculated
Carcinogen: METHYLNITROSOUREA, 684-93-5, Dose [Inhibitor]: 0, 782 MG/KG DIET IN VEHICLE 2 MO PRIOR TO CARCINOGEN DOSE AND CONTINUED FOR STUDY DURATION (STUDY DURATION: 8 MO), Route [Inhibitor]: ORAL, Species: RAT, Strain/Sex: CD-1/FEMALE, Target Tissue: Type of Lesion: MAMMARY GLAND: ADENOCARCINOMA, Dose [Carcinogen]: 50 MG/KG BW ONCE, Promoter: NONE USED
  tumour outcome (control, treated, inhibition, significance): 57%, 23%, 60%, p<0.05
Carcinogen: METHYLNITROSOUREA, 684-93-5, Dose [Inhibitor]: 0, 782 MG/KG DIET IN VEHICLE 2 MO PRIOR TO CARCINOGEN DOSE AND CONTINUED FOR STUDY DURATION (STUDY DURATION: 8 MO), Route [Inhibitor]: ORAL, Species: RAT, Strain/Sex: CD-1/FEMALE, Target Tissue: Type of Lesion: MAMMARY GLAND: BENIGN TUMOR, Dose [Carcinogen]: 50 MG/KG BW ONCE, Promoter: NONE USED
  tumour outcome (control, treated, inhibition, significance): 10%, 3%, 70%, not calculated
Carcinogen: METHYLNITROSOUREA, 684-93-5, Dose [Inhibitor]: 0, 782 MG/KG DIET IN VEHICLE 2 MO PRIOR TO CARCINOGEN DOSE AND CONTINUED UNTIL CARCINOGEN ADMINISTRATION (STUDY DURATION, Route [Inhibitor]: ORAL, Species: RAT, Strain/Sex: CD-1/FEMALE, Target Tissue: Type of Lesion: MAMMARY GLAND: ADENOCARCINOMA, Dose [Carcinogen]: 50 MG/KG BW ONCE, Promoter: NONE USED
  tumour outcome (control, treated, inhibition, significance): 57%, 66%, -16%, not calculated
